Data published in patent US12331051B2 (priority 2021, dated 2025).

Key:
mice = experiment: Tolerance after repeated dosing, HTR to DOI challenge; type: in vivo, mouse; conditions: IP once daily 7 days: DOI 10 mg/kg/day, E559 polymorph 3 mg/kg/day; DOI 1 mg/kg challenge 24 hours later
Protocol: To determine if repeated dosing of the “E559 polymorph” can induce tolerance in vivo, HTR experiment described in Examples 2 and 5 was repeated where mice received IP injections of vehicle, DOI (10 mg/kg/day), or the “E559 polymorph” (3 mg/kg/day; once daily for 7 consecutive days) and were then challenged with DOI (1 mg/kg) 24 hours later. Data shown in FIG. 22 are group means±standard deviation for the entire 60 minutes test session. Asterisks indicate statistical significances compared to the Vehicle control (Vehicle was saline).

5-HT2A receptor [1] = target: T1, 5-HT2A receptor (Homo sapiens, UniProt P28223)
5-HT2A receptor [2] = target: T1, 5-HT2A receptor; experiment: 5-HT2A receptor internalization, NanoBit HiBit-fused 5-HT2A in HEK293T cells; type: cell-based; set-up: expressed in transfected cells; host or cells: HEK293T
Protocol: To assess the ability of the “E559 polymorph” to induce β-arrestin-mediated 5-HT2A receptor internalization in vitro, the loss of surface expression of 5-HT2A receptor was measured using a NanoBit N-terminal HiBit-fused 5-HT2A construct cloned in HEK293T cells (1:15 ratio 5-HT2A: β-arrestin2). In brief, cells were treated with serial dilution of test compounds for 1 hour or a specified time point.

DVS hygroscopicity = type: physicochemical; conditions: for DVS (hold at 75% RH) mass increase: crude material, 75% relative humidity, ~5 hr run time
[3] = tested on: primary cortical neurons (rats); experiment: In vitro dendritogenesis assay with volinanserin pre-treatment; type: cell-based, rat
Protocol: The 5-HT2A receptor plays a key role in the function of serotonergic psychedelics and their derivatives (Jaster, et al., Psychopharmacology, 2022, 239, p1665-1677.). […] The in vitro dendritogenesis assay was repeated in the presence or absence of a selective 5-HT2A antagonist volinanserin. In brief, FIG. 20A represents tracings of the cortical neurons (DIV 3) treated with volinanserin (Vol) at […]) followed by either vehicle or “E559 polymorph” (1 μM). Sholl radii are spaced 10 μm. […] FIG. 20C represents the total dendritic arbour length for neurons treated in FIG. 20A. In FIGS. 20B and 20C, violin plots represent the distribution of individual cells (n=15/treatment), while dots represent the averages per independent experiment (n=5/treatment). In this study primary cortical neurons (rats) were treated with volinanserin (0.1-1 μM), a selected 5-HT2A receptor antagonist, prior to the administration of the “polymorph HT compound” (1 μM 2-Br-LSD).

stress-naïve mice = experiment: FST and OFT with volinanserin pre-treatment; type: in vivo, mouse
Protocol: The 5-HT2A receptor plays a key role in the function of many serotonergic psychedelics and their derivatives (Jaster et al., Psychopharmacology, 2022, 239, p1665-1677.). […] To further investigate the role of the 5-HT2A receptor in the “E559 polymorph” effects in these in vivo models, the open field test and forced swim test in mice was repeated as described in Example 14, with and without volinanserin, a selective 5-HT2A antagonist, treatment. Briefly, volnanserin (0.125 mg/kg) was administered (IP injection) 1 hour prior to the administration of the “E559 polymorph” (1 mg/kg, IP) to stress-naïve mice, and forced swim test was performed 24 hours later as described in Example 14. In brief, FIG. 26A represents immobility time in the forced swim test of female mice (n=12/group) pre-treated with vehicle or volinanserin, followed by either vehicle (saline) or “E559 polymorph” (1 mg/kg). […] FIG. 26C represents distance travelled in the open field Measured 24 hours after treatment (as in FIG. 26A) in female mice (n=12). […] Horizontal lines in FIG. 26 represent the mean±standard error of the mean (S.E.M.) and asterisks indicate statistical significances.

[4] = target: T2, Serotonin 1B receptor (5-HT1BR) (Homo sapiens, UniProt P28222); experiment: Functional assay in HEK-293 cells (cAMP); type: cell-based; conditions: Functional Assay (agonist) EC50 (nM), cAMP; ligand 5-HT
T2 construct: expressed in transfected cells; host or cells: HEK-293
Protocol: (§1) Neuro-receptor binding and functional effects of the “E559 polymorph” was examined by analyzing binding affinity [Ki (nM)], functional agonist activity [EC50 (nM)], and functional antagonist activity [IC50 (nM)] against a panel of key receptors in neurophysiological disorders. Binding and functional assays were performed at “E559 polymorph” concentrations of 0.0003, 0.003, 0.01, 0.03, 0.1, 0.3, 1, and 10 μM. In binding assays, cell membrane homogenates, expressing each receptor target, were incubated with the corresponding radio-ligand in absence or presence of several concentration of the “E559 polymorph” compound. The measurement of binding affinity of the “E559 polymorph” is represented in TABLE XIII by Ki (nM) which was calculated as percent inhibition of the binding of a radioactively labeled reference ligand at each receptor. In functional assays the HEK-293 cells expressing each receptor target were suspended in buffer and distribute in microplates and incubated for 30 minutes at room temperature or 37° C. in the presence of buffer alone (basal control), the reference agonist or antagonist, or the “E559 polymorph. Following incubation, the cells were lysed and the appropriate fluorescent probe (Ca2+ flux, cAMP, or IP1) were added for 60 minutes to measure the fluorescence transfer at the appropriate wavelength using a microplate reader. The cellular agonist effect (EC50) was calculated as a percent of control response to a known reference agonist and the cellular antagonist effect (IC50) was calculated as a percent inhibition of control reference agonist response for each receptor.
(§2) The functional agonist activity [EC50 (nM), Emax], and functional antagonist activity [IC50 (nM)] of the 5R:8S stereoisomer of the “E559 polymorph” (5R:8S E558) was compared with the “E559 polymorph” (a 5R:8R stereoisomer) at selected serotonin receptors. The assays were performed as described in Example 6.

[5] = target: T3, 5-HT2A receptor (5-HT2AR) (Homo sapiens, UniProt P28223); experiment: Functional assay in HEK-293 cells (IP1); type: cell-based
T3 construct: expressed in transfected cells; host or cells: HEK-293
Protocol: as §1, §2

[6] = target: T4, Serotonin 2B receptor (5-HT2BR) (Homo sapiens, UniProt P41595); experiment: Functional assay in HEK-293 cells (IP1); type: cell-based
T4 construct: expressed in transfected cells; host or cells: HEK-293
Protocol: as §1, §2

5-HT1E = target: T5, 5-HT1E (Homo sapiens, UniProt P28566); experiment: Functional assay (Arrestin); type: cell-based
T5 construct: expressed in transfected cells; host or cells: HEK-293

5-HT1F = target: T6, 5-HT1F (Homo sapiens, UniProt P30939); experiment: Functional assay (cAMP); type: cell-based
T6 construct: expressed in transfected cells; host or cells: HEK-293
T6 sequence (P30939 1-366): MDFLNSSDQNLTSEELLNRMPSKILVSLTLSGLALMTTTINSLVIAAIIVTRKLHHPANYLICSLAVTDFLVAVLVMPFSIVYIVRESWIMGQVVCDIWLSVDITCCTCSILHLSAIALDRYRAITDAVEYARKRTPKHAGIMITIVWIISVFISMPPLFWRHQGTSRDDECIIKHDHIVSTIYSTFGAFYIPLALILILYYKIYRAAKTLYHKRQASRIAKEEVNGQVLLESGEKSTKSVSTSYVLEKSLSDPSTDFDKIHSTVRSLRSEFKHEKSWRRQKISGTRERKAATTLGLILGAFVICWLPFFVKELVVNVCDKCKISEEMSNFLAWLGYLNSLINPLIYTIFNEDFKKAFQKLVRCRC
Protocol: as §1, §2

5-HT6 = 5-HT6 (Homo sapiens, UniProt P50406); experiment: Functional assay (cAMP); type: cell-based; set-up: expressed in transfected cells; host or cells: HEK-293
Protocol: as §1, §2

[7] = cAMP, ligand 5-HT, read-out: Functional Assay (agonist) Emax

T1 sequence (P28223 whole entry, the tested form may be a part): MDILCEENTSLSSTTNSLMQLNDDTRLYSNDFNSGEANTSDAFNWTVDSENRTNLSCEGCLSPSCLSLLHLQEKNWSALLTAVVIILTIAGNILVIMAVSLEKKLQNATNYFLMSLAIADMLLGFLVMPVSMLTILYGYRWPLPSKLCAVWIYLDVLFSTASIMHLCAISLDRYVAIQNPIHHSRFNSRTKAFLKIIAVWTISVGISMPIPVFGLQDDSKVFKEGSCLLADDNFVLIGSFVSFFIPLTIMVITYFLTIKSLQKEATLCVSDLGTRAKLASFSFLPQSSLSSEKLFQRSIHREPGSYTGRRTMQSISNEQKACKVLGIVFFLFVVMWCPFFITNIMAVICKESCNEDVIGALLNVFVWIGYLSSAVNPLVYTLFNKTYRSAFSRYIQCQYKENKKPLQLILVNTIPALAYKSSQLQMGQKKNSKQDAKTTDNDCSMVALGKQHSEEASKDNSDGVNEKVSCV
T3 sequence (P28223 whole entry): as the sequence (P28223 whole entry, the tested form may be a part) above
T4 sequence (P41595 whole entry): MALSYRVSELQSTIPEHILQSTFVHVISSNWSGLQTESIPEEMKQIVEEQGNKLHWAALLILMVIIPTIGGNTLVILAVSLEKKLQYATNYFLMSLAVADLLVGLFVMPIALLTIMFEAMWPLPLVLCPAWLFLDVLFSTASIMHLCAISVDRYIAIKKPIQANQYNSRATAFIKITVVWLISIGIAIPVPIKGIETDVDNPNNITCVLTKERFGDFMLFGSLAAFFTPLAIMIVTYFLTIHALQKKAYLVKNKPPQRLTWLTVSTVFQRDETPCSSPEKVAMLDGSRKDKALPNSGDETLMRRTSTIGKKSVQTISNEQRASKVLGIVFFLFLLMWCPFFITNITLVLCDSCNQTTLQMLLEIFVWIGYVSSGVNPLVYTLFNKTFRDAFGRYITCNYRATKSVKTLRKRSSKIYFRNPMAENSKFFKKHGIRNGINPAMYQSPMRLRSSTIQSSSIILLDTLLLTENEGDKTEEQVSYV
Chain of 5-HT6 (P50406 whole entry): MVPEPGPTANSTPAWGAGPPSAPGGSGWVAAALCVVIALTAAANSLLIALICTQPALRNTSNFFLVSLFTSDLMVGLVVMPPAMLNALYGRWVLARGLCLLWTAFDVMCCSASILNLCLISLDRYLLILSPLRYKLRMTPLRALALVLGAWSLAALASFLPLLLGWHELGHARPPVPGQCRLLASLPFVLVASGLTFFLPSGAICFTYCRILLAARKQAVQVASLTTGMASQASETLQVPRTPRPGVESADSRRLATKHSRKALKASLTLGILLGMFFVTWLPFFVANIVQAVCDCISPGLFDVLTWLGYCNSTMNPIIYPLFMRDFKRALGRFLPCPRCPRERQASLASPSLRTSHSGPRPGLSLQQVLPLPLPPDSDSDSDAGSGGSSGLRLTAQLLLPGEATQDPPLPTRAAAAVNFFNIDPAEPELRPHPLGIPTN
T2 sequence (P28222 whole entry): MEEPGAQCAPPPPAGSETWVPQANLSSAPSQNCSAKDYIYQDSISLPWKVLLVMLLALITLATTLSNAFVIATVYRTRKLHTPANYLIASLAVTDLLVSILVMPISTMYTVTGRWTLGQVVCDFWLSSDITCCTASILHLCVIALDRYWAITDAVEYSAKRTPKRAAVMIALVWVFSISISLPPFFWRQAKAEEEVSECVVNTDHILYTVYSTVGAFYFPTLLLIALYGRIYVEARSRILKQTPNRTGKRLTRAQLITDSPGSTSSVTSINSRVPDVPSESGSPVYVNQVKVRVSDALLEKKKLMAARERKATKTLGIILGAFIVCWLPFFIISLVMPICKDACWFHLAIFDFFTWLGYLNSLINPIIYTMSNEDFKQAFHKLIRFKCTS
T5 sequence (P28566 whole entry): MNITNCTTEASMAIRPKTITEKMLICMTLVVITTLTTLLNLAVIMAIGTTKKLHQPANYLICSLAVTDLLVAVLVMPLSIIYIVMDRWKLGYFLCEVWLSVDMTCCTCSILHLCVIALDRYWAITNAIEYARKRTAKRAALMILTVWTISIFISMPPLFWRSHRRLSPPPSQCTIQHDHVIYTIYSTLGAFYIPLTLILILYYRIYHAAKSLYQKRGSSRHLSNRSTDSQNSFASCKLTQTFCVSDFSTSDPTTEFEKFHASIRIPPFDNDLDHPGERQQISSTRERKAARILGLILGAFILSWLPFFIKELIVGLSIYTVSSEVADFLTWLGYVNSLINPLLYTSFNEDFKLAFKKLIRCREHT

COc1cc(CC(C)N)c(OC)cc1I (stereo not drawn) [DOI, 2,5-Dimethoxy-4-iodoamphetamine]
tolerance (tachyphylaxis) after repeated dosing, HTR count on DOI challenge (mice): induced a significant degree of tachyphylaxis/tolerance | β-Arrestin2 recruitment at the 5-HT2A receptor (5-HT2A receptor [1]): strong recruiters of β-Arrestin2 | internalization of the 5-HT2A receptor (loss of surface expression) (5-HT2A receptor [2]): potent internalization

CCN(CC)C(=O)[C@@H]1C=C2c3cccc4[nH]c(Br)c(c34)C[C@H]2N(C)C1 [E560, (5R, 8R)-2-Bromo-9,10-didehydro-N,N-diethyl-6-methylergoline-8-carboxamide hemi-L-tartrate]
DVS (0-90-0 2 cycles) max water absorbed (DVS hygroscopicity; 90% RH exposure, ~24 hr run time, listed as L-Tartrate): absorbed mad 12% | DVS (hold at 75% RH) mass increase (DVS hygroscopicity; listed as L-Tartrate): 6.3% mass increase | DVS (hold at 75% RH) mass increase (DVS hygroscopicity; listed as L-tartrate salt): about 6.3%

COc1cccc([C@H](O)C2CCN(CCc3ccc(F)cc3)CC2)c1OC [volinanserin]
effect of volinanserin on E559 polymorph induced increase in total dendrite length ([3]; E559 polymorph 1 μM): blocked the increase in total dendrite length | effect of volinanserin pre-treatment on E559 polymorph (1 μM) induced dendritic arbor complexity (Sholl intersections) ([3]; every volinanserin concentration tested): blocked the effect | dendritic arbor complexity, volinanserin alone ([3]; volinanserin followed by vehicle): did not change any parameters linked to dendritic arbor complexity | effect of volinanserin pre-treatment on E559 polymorph induced decrease in immobility in FST (stress-naïve mice; volinanserin 0.125 mg/kg IP 1 hour before E559 polymorph 1 mg/kg IP, female and male mice): blocked the decrease in immobility | locomotion in the OFT (stress-naïve mice; volinanserin alone or with E559 polymorph, female or male mice): did not affect locomotion in the OFT in female or male mice

NCCc1c[nH]c2ccc(O)cc12 [5-HT, serotonin]
β-Arrestin2 recruitment at the 5-HT2A receptor (5-HT2A receptor [1]): strong recruiters of β-Arrestin2 | internalization of the 5-HT2A receptor (loss of surface expression) (5-HT2A receptor [2]): potent internalization

CCN(CC)C(=O)[C@H]1C=C2c3cccc4[nH]c(Br)c(c34)C[C@H]2N(C)C1 [E558, (5R, 8S)-2-Bromo-9,10-didehydro-N,N-diethyl-6-methylergoline-8-carboxamide]
EC50 [4]: > 10000 nM | EC50 [5]: 0.2 µM | IC50 [5]: > 10 µM | Emax ([5]; HEK293, IP1, ligand 5-HT, read-out: Functional Assay (agonist) Emax): 55% | EC50 [6]: > 10 µM | IC50 [6]: > 10 µM | EC50 (5-HT1E): > 10 µM | EC50 (5-HT1F): 3.12 µM | Emax (5-HT1F; [7]): 66.9% | EC50 (5-HT6): 0.099 µM | Emax (5-HT6; [7]): 71%
